Test results from patent publication US10414811B2, “Protease-resistant lipidated GLP-1 analogs” (MEDIMMUNE LIMITED, priority 2015, dated 2019).
Read-outs that look alike come from different tables or passages of the source.

How the values were obtained:
Assay type in all cases: cell-based
[1] = biological target: T1, human GLP-1 receptor (GLP-1R) (Homo sapiens, UniProt P43220); test: cAMP assay, human GLP-1R cells
T1 construct: expressed in transfected cells
In short: (§1)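 Peptide-stimulated cAMP measured by two-step HTRF after a 30 min room-temperature incubation with receptor-expressing cells (hGLP-1R, hGIPR at 1×10^5 cells/ml; hGCGR at 2×10^5 cells/ml). Duplicate dilutions; EC50 from 4-parameter logistic fit of % Delta F.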

[2] = biological target: T2, GLP-1R (INS1e assay) (Rattus norvegicus, UniProt P32301); test: INS1e assay, cAMP activity at GLP-1R; details: mono-lipidated peptides
T2 construct: endogenous in cells; host or cells: INS-1E cells
T2 sequence (P32301 22-463): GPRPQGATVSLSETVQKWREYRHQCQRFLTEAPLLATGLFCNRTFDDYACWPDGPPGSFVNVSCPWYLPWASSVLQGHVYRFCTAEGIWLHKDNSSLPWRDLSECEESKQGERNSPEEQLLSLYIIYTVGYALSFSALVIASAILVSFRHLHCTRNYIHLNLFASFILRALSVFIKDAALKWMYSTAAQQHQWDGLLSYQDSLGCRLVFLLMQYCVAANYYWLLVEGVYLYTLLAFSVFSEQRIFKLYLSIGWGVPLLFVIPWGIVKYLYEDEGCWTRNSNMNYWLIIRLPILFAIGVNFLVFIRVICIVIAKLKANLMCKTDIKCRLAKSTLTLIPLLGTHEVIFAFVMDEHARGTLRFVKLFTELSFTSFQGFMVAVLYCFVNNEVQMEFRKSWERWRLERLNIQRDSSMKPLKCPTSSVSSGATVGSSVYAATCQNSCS
In short: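 It pairs cAMP-d2 acceptor with anti-cAMP cryptate donor, both prepared 1/20 in conjugate/lysis buffer, applied as a two-step protocol.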

[3] = biological target: T3, human glucagon receptor (GCGR) (Homo sapiens, UniProt P47871); test: cAMP assay, human GCGR cells; details: cAMP assay
T3 construct: expressed in transfected cells
T3 sequence (P47871 26-477): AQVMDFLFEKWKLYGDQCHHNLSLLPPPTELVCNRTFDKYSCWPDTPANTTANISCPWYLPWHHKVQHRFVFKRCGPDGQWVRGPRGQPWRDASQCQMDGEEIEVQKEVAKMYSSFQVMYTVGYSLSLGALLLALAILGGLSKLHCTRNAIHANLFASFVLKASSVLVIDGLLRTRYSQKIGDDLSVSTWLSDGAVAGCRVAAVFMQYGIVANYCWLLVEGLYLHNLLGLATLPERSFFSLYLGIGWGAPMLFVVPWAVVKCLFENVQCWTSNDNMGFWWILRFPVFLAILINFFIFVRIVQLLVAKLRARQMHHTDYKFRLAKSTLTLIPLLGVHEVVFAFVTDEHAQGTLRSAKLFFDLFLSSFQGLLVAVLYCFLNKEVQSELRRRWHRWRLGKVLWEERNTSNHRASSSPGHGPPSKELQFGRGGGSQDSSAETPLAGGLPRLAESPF
In short: as §1

[4] = biological target: T4, human glucose-dependent insulinotropic peptide receptor (GIPR) (Homo sapiens, UniProt P48546); test: cAMP assay, human GIPR cells; details: cAMP assay
T4 construct: expressed in transfected cells
T4 sequence (P48546 22-466): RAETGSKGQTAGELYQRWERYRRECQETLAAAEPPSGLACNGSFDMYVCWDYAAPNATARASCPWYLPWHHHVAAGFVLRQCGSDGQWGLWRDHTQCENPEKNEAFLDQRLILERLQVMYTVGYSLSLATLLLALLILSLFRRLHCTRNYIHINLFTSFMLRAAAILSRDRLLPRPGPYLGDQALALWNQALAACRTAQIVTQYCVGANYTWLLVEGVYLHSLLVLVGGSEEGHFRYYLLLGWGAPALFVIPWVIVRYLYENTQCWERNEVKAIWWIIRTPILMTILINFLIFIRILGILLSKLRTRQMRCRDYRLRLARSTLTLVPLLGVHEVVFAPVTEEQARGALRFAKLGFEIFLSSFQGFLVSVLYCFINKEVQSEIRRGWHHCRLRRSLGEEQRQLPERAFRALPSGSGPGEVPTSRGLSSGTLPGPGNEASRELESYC
In short: as §1

[5] = cAMP assay, first determination (n1), read-out: Primary assay EC50 GLP-1R n1
[6] = cAMP assay, second determination (n2), read-out: Primary assay EC50 GLP-1R n2
[7] = mean of n1 and n2, read-out: Mean pM GLP-1R
[8] = mean of n1 and n2, read-out: INS1e assay EC50 Mean pM GLP-1R
[9] = replicate n1, read-out: INS1e assay EC50 GLP-1R n1
[10] = replicate n2, read-out: INS1e assay EC50 GLP-1R n2
[11] = first determination (n1), read-out: Primary assay EC50 Gluc-R (n1)
[12] = second determination (n2), read-out: Primary assay EC50 Gluc-R (n2)
[13] = first determination (n1), read-out: Primary assay EC50 GIP-R (n1)
[14] = second determination (n2), read-out: Primary assay EC50 GIP-R (n2)

T1 sequence (P43220 24-463): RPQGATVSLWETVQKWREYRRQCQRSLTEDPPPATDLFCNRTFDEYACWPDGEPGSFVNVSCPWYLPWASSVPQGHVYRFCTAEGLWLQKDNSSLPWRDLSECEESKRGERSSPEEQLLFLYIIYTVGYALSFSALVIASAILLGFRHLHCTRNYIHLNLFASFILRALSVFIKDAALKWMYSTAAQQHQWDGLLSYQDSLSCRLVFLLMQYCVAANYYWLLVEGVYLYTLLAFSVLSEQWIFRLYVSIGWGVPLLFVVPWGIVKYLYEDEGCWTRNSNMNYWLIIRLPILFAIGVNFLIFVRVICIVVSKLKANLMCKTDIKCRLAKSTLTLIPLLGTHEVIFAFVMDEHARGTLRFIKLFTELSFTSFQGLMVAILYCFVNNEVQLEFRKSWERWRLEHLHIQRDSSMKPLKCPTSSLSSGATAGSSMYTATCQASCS

EC50 [1, 5] [pM]	EC50 [1, 6] [pM]	EC50 [1, 7] [pM]	EC50 [2, 8] [pM]	EC50 [2, 9] [pM]	EC50 [2, 10] [pM]	EC50 [3, 11] [nM]	EC50 [3, 12] [nM]	EC50 [4, 13] [nM]	EC50 [4, 14] [nM]	Structure (SMILES)
7.2	2.7	4.9	460	233	687	≥ 26	≥ 26	≥ 26	≥ 26	CCCCCCCCCCCC(=O)N[C@@H](CCC(=O)N[C@@H](CCC(=O)N[C@@H](CCC(=O)NCCCC[C@H](NC(=O)[C@@H](NC(=O)[C@@H](NC(=O)[C@](C)(Cc1ccccc1)NC(=O)[C@H](C)NC(=O)[C@@H](NC(=O)[C@](C)(Cc1ccccc1)NC(=O)[C@H](CCC(=O)O)NC(=O)[C@](C)(CCCCN)NC(=O)[C@H](C)NC(=O)[C@H](C)NC(=O)[C@H](CCC(=O)O)NC(=O)CNC(=O)[C@H](CCC(=O)O)NC(=O)[C@H](CC(C)C)NC(=O)[C@](C)(Cc1ccccc1)NC(=O)[C@H](CO)NC(=O)[C@](C)(CO)NC(=O)[C@@H](NC(=O)[C@H](CC(=O)O)NC(=O)[C@H](CO)NC(=O)[C@@H](NC(=O)[C@](C)(Cc1ccccc1)NC(=O)[C@H](CO)NC(=O)CNC(=O)[C@H](CCC(=O)O)NC(=O)C(C)(C)NC(=O)[C@@H](N)Cc1c[nH]cn1)[C@@H](C)O)C(C)C)[C@@H](C)CC)C(C)C)C(C)C)C(=O)NCC(=O)NCC(N)=O)C(=O)O)C(=O)O)C(=O)O [compound 166]
5.1	2.6	3.8	326	189	462	≥ 28	≥ 28	≥ 28	≥ 28	CCCCCCCCCCCC(=O)NCCCCCC(=O)NCCCCCC(=O)NCCCC[C@H](NC(=O)[C@@H](NC(=O)[C@@H](NC(=O)[C@](C)(Cc1ccccc1)NC(=O)[C@H](C)NC(=O)[C@@H](NC(=O)[C@](C)(Cc1ccccc1)NC(=O)[C@H](CCC(=O)O)NC(=O)[C@](C)(CCCCN)NC(=O)[C@H](C)NC(=O)[C@H](C)NC(=O)[C@H](CCC(=O)O)NC(=O)CNC(=O)[C@H](CCC(=O)O)NC(=O)[C@H](CC(C)C)NC(=O)[C@](C)(Cc1ccccc1)NC(=O)[C@H](CO)NC(=O)[C@](C)(CO)NC(=O)[C@@H](NC(=O)[C@H](CC(=O)O)NC(=O)[C@H](CO)NC(=O)[C@@H](NC(=O)[C@](C)(Cc1ccccc1)NC(=O)[C@H](CO)NC(=O)CNC(=O)[C@H](CCC(=O)O)NC(=O)C(C)(C)NC(=O)[C@@H](N)Cc1c[nH]cn1)[C@@H](C)O)C(C)C)[C@@H](C)CC)C(C)C)C(C)C)C(=O)NCC(=O)NCC(N)=O [compound 168]
3.4	1.7	2.6	181	93.1	269	≥ 27	≥ 27	≥ 27	≥ 27	CCCCCCCCCCCC(=O)NCCCCCC(=O)NCCCCCC(=O)NCCCCCC(=O)NCCCC[C@H](NC(=O)[C@@H](NC(=O)[C@@H](NC(=O)[C@](C)(Cc1ccccc1)NC(=O)[C@H](C)NC(=O)[C@@H](NC(=O)[C@](C)(Cc1ccccc1)NC(=O)[C@H](CCC(=O)O)NC(=O)[C@](C)(CCCCN)NC(=O)[C@H](C)NC(=O)[C@H](C)NC(=O)[C@H](CCC(=O)O)NC(=O)CNC(=O)[C@H](CCC(=O)O)NC(=O)[C@H](CC(C)C)NC(=O)[C@](C)(Cc1ccccc1)NC(=O)[C@H](CO)NC(=O)[C@](C)(CO)NC(=O)[C@@H](NC(=O)[C@H](CC(=O)O)NC(=O)[C@H](CO)NC(=O)[C@@H](NC(=O)[C@](C)(Cc1ccccc1)NC(=O)[C@H](CO)NC(=O)CNC(=O)[C@H](CCC(=O)O)NC(=O)C(C)(C)NC(=O)[C@@H](N)Cc1c[nH]cn1)[C@@H](C)O)C(C)C)[C@@H](C)CC)C(C)C)C(C)C)C(=O)NCC(=O)NCC(N)=O [compound 169]

More lines, now with the values behind:

Structure (SMILES)	EC50 [1, 5] [pM]	EC50 [1, 6] [pM]	EC50 [1, 7] [pM]	EC50 [2, 8] [pM]	EC50 [2, 9] [pM]	EC50 [2, 10] [pM]	EC50 [3, 11] [nM]	EC50 [3, 12] [nM]	EC50 [4, 13] [nM]	EC50 [4, 14] [nM]
CCCCCCCCCCCCCCCCCC(=O)NCCOCCOCC(=O)NCCOCCOCC(=O)NCCCC[C@H](NC(=O)[C@H](C)NC(=O)[C@H](C)NC(=O)[C@H](CCC(=O)O)NC(=O)CNC(=O)[C@H](CCC(=O)O)NC(=O)[C@H](CC(C)C)NC(=O)[C@](C)(Cc1ccccc1)NC(=O)[C@H](CO)NC(=O)[C@](C)(CO)NC(=O)[C@@H](NC(=O)[C@H](CC(=O)O)NC(=O)[C@H](CO)NC(=O)[C@@H](NC(=O)[C@](C)(Cc1ccccc1)NC(=O)[C@H](CO)NC(=O)CNC(=O)[C@H](CCC(=O)O)NC(=O)C(C)(C)NC(=O)[C@@H](N)Cc1c[nH]cn1)[C@@H](C)O)C(C)C)C(=O)N[C@@H](CCC(=O)O)C(=O)N[C@@](C)(Cc1ccccc1)C(=O)N[C@H](C(=O)N[C@@H](C)C(=O)N[C@@](C)(Cc1ccccc1)C(=O)N[C@H](C(=O)N[C@H](C(=O)N[C@@](C)(CCCCN)C(=O)NCC(=O)NCC(N)=O)C(C)C)C(C)C)[C@@H](C)CC [compound 153]	7.9	5	6.4	58	55	61.2	≥ 27	≥ 27	≥ 27	≥ 27
CCCCCCCCCCCCCCCCCC(=O)NCCOCCOCC(=O)NCCOCCOCC(=O)NCCOCCOCC(=O)NCCCC[C@H](NC(=O)[C@H](C)NC(=O)[C@H](C)NC(=O)[C@H](CCC(=O)O)NC(=O)CNC(=O)[C@H](CCC(=O)O)NC(=O)[C@H](CC(C)C)NC(=O)[C@](C)(Cc1ccccc1)NC(=O)[C@H](CO)NC(=O)[C@](C)(CO)NC(=O)[C@@H](NC(=O)[C@H](CC(=O)O)NC(=O)[C@H](CO)NC(=O)[C@@H](NC(=O)[C@](C)(Cc1ccccc1)NC(=O)[C@H](CO)NC(=O)CNC(=O)[C@H](CCC(=O)O)NC(=O)C(C)(C)NC(=O)[C@@H](N)Cc1c[nH]cn1)[C@@H](C)O)C(C)C)C(=O)N[C@@H](CCC(=O)O)C(=O)N[C@@](C)(Cc1ccccc1)C(=O)N[C@H](C(=O)N[C@@H](C)C(=O)N[C@@](C)(Cc1ccccc1)C(=O)N[C@H](C(=O)N[C@H](C(=O)N[C@@](C)(CCCCN)C(=O)NCC(=O)NCC(N)=O)C(C)C)C(C)C)[C@@H](C)CC [compound 154]	2.8	2.3	2.5	25	32.3	17.1	≥ 26	≥ 26	≥ 26	≥ 26
CCCCCCCCCCCC(=O)NCCOCCOCC(=O)NCCOCCOCC(=O)NCCCC[C@H](NC(=O)[C@@H](NC(=O)[C@@H](NC(=O)[C@](C)(Cc1ccccc1)NC(=O)[C@H](C)NC(=O)[C@@H](NC(=O)[C@](C)(Cc1ccccc1)NC(=O)[C@H](CCC(=O)O)NC(=O)[C@](C)(CCCCN)NC(=O)[C@H](C)NC(=O)[C@H](C)NC(=O)[C@H](CCC(=O)O)NC(=O)CNC(=O)[C@H](CCC(=O)O)NC(=O)[C@H](CC(C)C)NC(=O)[C@](C)(Cc1ccccc1)NC(=O)[C@H](CO)NC(=O)[C@](C)(CO)NC(=O)[C@@H](NC(=O)[C@H](CC(=O)O)NC(=O)[C@H](CO)NC(=O)[C@@H](NC(=O)[C@](C)(Cc1ccccc1)NC(=O)[C@H](CO)NC(=O)CNC(=O)[C@H](CCC(=O)O)NC(=O)C(C)(C)NC(=O)[C@@H](N)Cc1c[nH]cn1)[C@@H](C)O)C(C)C)[C@@H](C)CC)C(C)C)C(C)C)C(=O)NCC(=O)NCC(N)=O [compound 171]	2.5	1.2	1.9	128	81.7	175	≥ 27	≥ 27	≥ 27	≥ 27
